In patent publication US20030170702A1, “Methods for polysome distribution analysis of mRNA's” (priority 2002, published 2003):

Legend:
[1] = target: T1, MultiScribe Reverse Transcriptase (Moloney murine leukemia virus, UniProt P03355); assay: Inhibition of reverse transcription (RT) by heparin and sucrose, 32P-labeled primer extension; type: biochemical
T1 construct: MultiScribe Reverse Transcriptase; purchased ABI (Applied Biosystems Inc)
Method: (§1) We discovered that heparin and sucrose inhibit reverse transcription (RT) and polymerase chain reaction (PCR). To determine the level of heparin or sucrose that inhibits these reactions, RT and PCR reactions were performed at varying heparin and sucrose concentrations. Each reaction mixture contained 25 μL 2× SYBR Green PCR Master Mix (Applied Biosystems Inc), 0.25 μL MultiScribe Reverse Transcriptase at 50U/μl (ABI), 0.4 μL RNase Inhibitor at 20U/μl (ABI), 25 nM forward primer, 25 nM reverse primer, 10 μl RNA template, and enough water to bring the final reaction volume to 50 μl. For the RT reactions, E coli RNase P RNA was used as the RNA template, and 1.25 μl of each primer from a stock solution of 1 μM was used, giving a final primer concentration of 25 nM. The RNase P primers were RNASEP-F19 (5′-[…]-3′, SEQ ID NO: 1) and RNASEP-R278 (5′-[…]-3′, SEQ ID NO: 2). All primers were purchased from Integrated DNA Technologies, Inc. The 2× SYBR Green Master Mix contains Taq polymerase, nucleotides, buffer, and magnesium. These reaction mixtures were assembled in a Micro Amp Optical 96 well reaction plate (ABI).
To examine the reverse transcription efficiency in the presence of sucrose and heparin, the reverse primer specific for RNase P RNA was ^32P labeled, and used as the only source of reverse primer. The radiolabeled primer was extended using reverse transcription during an incubation at 48° C. for 30 minutes. The resultant DNA was isolated and separated on a 6% denaturing gel. After soaking and drying the gel, the ^32P labeled reverse transcription product was quantitated using the Cyclone Storage Phosphor System (Packard) and Optiquant Image Analysis Software (Packard). This software reports the intensity of a selected band on the gel in units called Digital Light Units (DLU). The number of DLUs is listed in the “Raw Activity” column in Table 1. The amounts of sucrose and heparin in the samples as well as the final concentration of sucrose (percent weight per volume, % w/v) and heparin in the RT reaction are also listed. The highest amount represents 30% sucrose (average of the amount in a typical sucrose gradient) and 1 mg/mL heparin (amount of heparin in a typical sucrose gradient fraction). The amount of reverse transcription activity (“% RT” column) is expressed as a percent of the activity in the presence of differing amounts of sucrose or heparin relative to the activity in the absence of these substances.

Taq polymerase = target: T2, Taq polymerase (Thermus aquaticus, UniProt P19821); assay: Inhibition of PCR by heparin and sucrose, SYBR Green quantitation of amplicon; type: biochemical; conditions: for concentration that inhibits PCR efficiency: final concentration in PCR reaction, 35 cycles
T2 construct: purchased Applied Biosystems Inc
Method: as §1
PCR reactions were also performed in the presence of varying amounts of heparin and sucrose. The plasmid pJA2′, which contains the DNA copy of the E coli RNase P RNA, was used as the template in these PCR reactions to generate both experimental and standard curves. Thirty-five cycles of PCR were performed in which the reaction mixture was incubated at 95° C. for 15 seconds for denaturation and 60° C. for one minute for annealing and extension. The reaction mixtures in the 96 well plate were loaded in the Gene Amp 5700 Sequence Detection System (ABI). This machine quantitates the amount of PCR product made after each cycle. A standard curve is generated with each reaction and used to calculate the quantity of the PCR product or amplicon for each experimental reaction. For the “Raw Activity” column in Table 2 the units are ng of DNA.

[2] = sucrose 0.001 % W/V final in RT reaction (0.04 % in sample)
[3] = sucrose 0.004 % W/V final in RT reaction (0.12 % in sample)
[4] = sucrose 0.014 % W/V final in RT reaction (0.37 % in sample)
[5] = sucrose 0.044 % W/V final in RT reaction (1.11 % in sample)
[6] = sucrose 0.133 % W/V final in RT reaction (3.33 % in sample)
[7] = sucrose 0.4 % W/V final in RT reaction (10 % in sample)
[8] = sucrose 1.2 % W/V final in RT reaction (30 % in sample)
[9] = sucrose 0.001 % w/v final in PCR reaction (0.04 % in sample)
[10] = sucrose 0.004 % w/v final in PCR reaction (0.12 % in sample)
[11] = sucrose 0.014 % w/v final in PCR reaction (0.37 % in sample)
[12] = sucrose 0.044 % w/v final in PCR reaction (1.11 % in sample)
[13] = sucrose 0.133 % w/v final in PCR reaction (3.33 % in sample)
[14] = sucrose 0.4 % w/v final in PCR reaction (10 % in sample)
[15] = sucrose 1.2 % w/v final in PCR reaction (30 % in sample)
[16] = heparin 0.002 ng/μL final in RT reaction (0.06 in sample)
[17] = heparin 0.012 ng/μL final in RT reaction (0.32 in sample)
[18] = heparin 0.064 ng/μL final in RT reaction (1.6 in sample)
[19] = heparin 0.32 ng/μL final in RT reaction (8 in sample)
[20] = heparin 1.6 ng/μL final in RT reaction (40 in sample)
[21] = heparin 8 ng/μL final in RT reaction (200 in sample)
[22] = heparin 40 ng/μL final in RT reaction (1000 in sample)
[23] = heparin 0.002 ng/μL final in PCR reaction (0.06 in sample)
[24] = heparin 0.012 ng/μL final in PCR reaction (0.32 in sample)
[25] = heparin 0.064 ng/μL final in PCR reaction (1.6 in sample)
[26] = heparin 0.32 ng/μL final in PCR reaction (8 in sample)
[27] = heparin 1.6 ng/μL final in PCR reaction (40 in sample)
[28] = heparin 8 ng/μL final in PCR reaction (200 in sample)
[29] = heparin 40 ng/μL final in PCR reaction (1000 in sample)

T2 sequence (P19821 whole entry): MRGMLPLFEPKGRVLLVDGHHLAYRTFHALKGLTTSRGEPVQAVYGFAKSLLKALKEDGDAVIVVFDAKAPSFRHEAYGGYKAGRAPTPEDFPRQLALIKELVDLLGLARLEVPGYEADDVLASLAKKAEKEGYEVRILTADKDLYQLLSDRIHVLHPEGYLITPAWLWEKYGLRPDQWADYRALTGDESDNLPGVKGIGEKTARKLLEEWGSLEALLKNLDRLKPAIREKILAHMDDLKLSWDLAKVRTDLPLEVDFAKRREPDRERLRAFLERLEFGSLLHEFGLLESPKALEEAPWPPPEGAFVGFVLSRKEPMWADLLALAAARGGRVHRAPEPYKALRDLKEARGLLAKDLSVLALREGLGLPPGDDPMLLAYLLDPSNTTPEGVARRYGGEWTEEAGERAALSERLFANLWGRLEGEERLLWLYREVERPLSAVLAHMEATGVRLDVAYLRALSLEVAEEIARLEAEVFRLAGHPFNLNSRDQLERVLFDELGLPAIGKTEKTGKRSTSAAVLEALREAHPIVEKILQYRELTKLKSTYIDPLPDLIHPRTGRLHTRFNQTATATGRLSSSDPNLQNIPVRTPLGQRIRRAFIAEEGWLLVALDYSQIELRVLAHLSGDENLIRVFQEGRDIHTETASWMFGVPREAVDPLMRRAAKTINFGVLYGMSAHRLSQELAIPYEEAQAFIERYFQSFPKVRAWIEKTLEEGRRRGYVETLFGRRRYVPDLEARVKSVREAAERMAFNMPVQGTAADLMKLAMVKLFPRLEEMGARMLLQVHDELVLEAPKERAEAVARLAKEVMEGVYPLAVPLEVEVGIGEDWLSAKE

With `OC[C@H]1O[C@@](CO)(O[C@H]2O[C@H](CO)[C@@H](O)[C@H](O)[C@H]2O)[C@@H](O)[C@@H]1O` [Sucrose, sucrose] the “% RT (reverse transcription activity relative to activity in absence of substance)” value [1, 2] was 133.445%, the “Raw Activity (RT product band intensity)” value [1, 2] was 7.94 DLU and the “% RT (reverse transcription activity relative to activity in absence of substance)” value [1, 3] was 158.487%. For the same compound, the “Raw Activity (RT product band intensity)” value [1, 3] was 9.43 DLU, the “% RT (reverse transcription activity relative to activity in absence of substance)” value [1, 4] was 171.933% and the “Raw Activity (RT product band intensity)” value [1, 4] was 10.23 DLU. For the same compound, the “% RT (reverse transcription activity relative to activity in absence of substance)” value [1, 5] was 159.832%, the “Raw Activity (RT product band intensity)” value [1, 5] was 9.51 DLU and the “% RT (reverse transcription activity relative to activity in absence of substance)” value [1, 6] was 155.798%. For the same compound, the “Raw Activity (RT product band intensity)” value [1, 6] was 9.27 DLU, the “% RT (reverse transcription activity relative to activity in absence of substance)” value [1, 7] was 119.328% and the “Raw Activity (RT product band intensity)” value [1, 7] was 7.1 DLU. For the same compound, the “% RT (reverse transcription activity relative to activity in absence of substance)” value [1, 8] was 96.1345%, the “Raw Activity (RT product band intensity)” value [1, 8] was 5.72 DLU and the “effect on the efficiency of reverse transcription” value ([1]; up to 1.2 % W/V sucrose final, 48° C. for 30 minutes) was “does not inhibit”. For the same compound, the “concentration that inhibits PCR efficiency” value (Taq polymerase) was 0.004 % w/v, the “% PCR” value (Taq polymerase; [9]) was 102% and the “Raw Activity (quantity of PCR product)” value (Taq polymerase; [9]) was 10.2 ng of DNA. The “% PCR” value (Taq polymerase; [10]) was 66.6%, the “Raw Activity (quantity of PCR product)” value (Taq polymerase; [10]) was 6.66 ng of DNA and the “% PCR” value (Taq polymerase; [11]) was 67%. For the same compound, the “Raw Activity (quantity of PCR product)” value (Taq polymerase; [11]) was 6.7 ng of DNA, the “% PCR” value (Taq polymerase; [12]) was 61% and the “Raw Activity (quantity of PCR product)” value (Taq polymerase; [12]) was 6.1 ng of DNA. The “% PCR” value (Taq polymerase; [13]) was 65.7%, the “Raw Activity (quantity of PCR product)” value (Taq polymerase; [13]) was 6.57 ng of DNA and the “% PCR” value (Taq polymerase; [14]) was 66.7%. For the same compound, the “Raw Activity (quantity of PCR product)” value (Taq polymerase; [14]) was 6.67 ng of DNA, the “% PCR” value (Taq polymerase; [15]) was 72.6% and the “Raw Activity (quantity of PCR product)” value (Taq polymerase; [15]) was 7.26 ng of DNA.
In the case of heparin, the “concentration that significantly inhibits reverse transcription efficiency” value ([1]; final concentration in RT reaction) is reported as no less than 0.32 ng/µL, the “% RT (reverse transcription activity relative to activity in absence of substance)” value [1, 16] is reported as 108.01% and the “Raw Activity (RT product band intensity)” value [1, 16] is reported as 10.79 DLU. The “% RT (reverse transcription activity relative to activity in absence of substance)” value [1, 17] was 101.8%, the “Raw Activity (RT product band intensity)” value [1, 17] was 10.17 DLU and the “% RT (reverse transcription activity relative to activity in absence of substance)” value [1, 18] was 93.293%. For the same compound, the “Raw Activity (RT product band intensity)” value [1, 18] was 9.32 DLU, the “% RT (reverse transcription activity relative to activity in absence of substance)” value [1, 19] was 72.573% and the “Raw Activity (RT product band intensity)” value [1, 19] was 7.25 DLU. The “% RT (reverse transcription activity relative to activity in absence of substance)” value [1, 20] was 3.6036%, the “Raw Activity (RT product band intensity)” value [1, 20] was 0.36 DLU and the “% RT (reverse transcription activity relative to activity in absence of substance)” value [1, 21] was 0.6006%. For the same compound, the “Raw Activity (RT product band intensity)” value [1, 21] was 0.06 DLU, the “% RT (reverse transcription activity relative to activity in absence of substance)” value [1, 22] was 0.8008% and the “Raw Activity (RT product band intensity)” value [1, 22] was 0.08 DLU. The “concentration that inhibits PCR efficiency” value (Taq polymerase) was 0.012 ng/µL, the “% PCR” value (Taq polymerase; [23]) was 107.69% and the “Raw Activity (quantity of PCR product)” value (Taq polymerase; [23]) was 0.002 11.2 ng of DNA. For the same compound, the “% PCR” value (Taq polymerase; [24]) was 75.962%, the “Raw Activity (quantity of PCR product)” value (Taq polymerase; [24]) was 7.9 ng of DNA and the “% PCR” value (Taq polymerase; [25]) was 29.808%. For the same compound, the “Raw Activity (quantity of PCR product)” value (Taq polymerase; [25]) was 3.1 ng of DNA, the “% PCR” value (Taq polymerase; [26]) was 0% and the “Raw Activity (quantity of PCR product)” value (Taq polymerase; [26]) was 0 ng of DNA. The “% PCR” value (Taq polymerase; [27]) was 0%, the “Raw Activity (quantity of PCR product)” value (Taq polymerase; [27]) was 0 ng of DNA and the “% PCR” value (Taq polymerase; [28]) was 0%. For the same compound, the “Raw Activity (quantity of PCR product)” value (Taq polymerase; [28]) was 0 ng of DNA, the “% PCR” value (Taq polymerase; [29]) was 0% and the “Raw Activity (quantity of PCR product)” value (Taq polymerase; [29]) was 0 ng of DNA.
